Assay results taken from PubChem BioAssay (NCI).
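Results reflect a 48-hour exposure of cells in 96-well plates to compound at five concentrations. TGI: total growth inhibition.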

What was measured:
Experiment in all cases: DTP human tumour cell line panel, 48 h
A549 NSCLC = system: A549 NSCLC
COLO 205 colon = system: COLO 205 colon
HCC-2998 colon = system: HCC-2998 colon
HOP-92 NSCLC = system: HOP-92 NSCLC
KM12 colon = system: KM12 colon
LOX IMVI melanoma = system: LOX IMVI melanoma
MCF7 breast = system: MCF7 breast
SF-295 CNS = system: SF-295 CNS
SK-MEL-28 melanoma = system: SK-MEL-28 melanoma
SNB-19 CNS = system: SNB-19 CNS
UO-31 renal = system: UO-31 renal

| Compound | TGI (A549 NSCLC) [µM] | TGI (COLO 205 colon) [µM] | TGI (HCC-2998 colon) [µM] | TGI (HOP-92 NSCLC) [µM] | TGI (KM12 colon) [µM] | TGI (LOX IMVI melanoma) [µM] | TGI (MCF7 breast) [µM] | TGI (SF-295 CNS) [µM] | TGI (SK-MEL-28 melanoma) [µM] | TGI (SNB-19 CNS) [µM] | TGI (UO-31 renal) [µM] |
| --- | --- | --- | --- | --- | --- | --- | --- | --- | --- | --- | --- |
| COC(=O)[C@H](Cc1ccccc1)NC(=O)c1ccc(CNC(=O)/C=C/c2csc(-c3ccccc3)n2)cc1 | > 72.2 | > 83.2 | 19.4 | 9.88 | > 100 | > 52.8 | 32 | 25.8 | 10.9 | 39.6 | 27.3 |
| Cc1nc2c(sc3nc4c(cc32)CCC4)c(=O)o1 | > 100 | > 100 | > 100 | > 96.4 | > 100 | > 100 | > 100 | > 100 | > 100 | > 96.6 | > 91.1 |
| C[C@@H]1CC[C@]2(C)C3(C)CC[C@]2(OC3=O)[C@@]12CC(c1ccoc1)OC2=O (stereo not given in full) | > 100 | 41.4 | > 100 | 69.2 | > 100 | 43.6 | > 100 | > 100 | 66.3 | > 100 | 45.5 |
| COc1ccc(/C(Nc2ccccc2)=C(\CCl)c2ccccc2)cc1OC | > 100 | > 100 | > 100 | > 100 | > 100 | > 100 | > 100 | > 100 | > 100 | > 100 | > 100 |
| C[C@@H](CC(=O)OCc1ccccc1)OC1OC(COC(=O)C(C)(C)C)C(OC(=O)C(C)(C)C)C(OC(=O)C(C)(C)C)C1OC(=O)C(C)(C)C (stereo not given in full) | > 100 | > 100 | > 100 | > 100 | > 100 | > 100 | > 100 | > 100 | > 100 | > 100 | > 100 |
| NNc1nnc(CCCCCCCCc2nnc(NN)n2N)n1N | > 100 | > 100 | > 100 | > 100 | > 100 | > 100 | > 100 | > 100 | > 100 | > 100 | > 100 |
| Clc1ccc(C=Nc2ccc(Oc3ccc(Cl)cc3)c(Cl)c2)cc1 | 59.1 | 36.5 | 45.6 | 41 | 52.5 | 39.1 | 88 | 37.7 | 61.5 | 56.2 | 24.8 |
| N#Cc1c(NC(=O)C(F)(F)F)sc2c3c(=O)c4ccccc4c(=O)c=3oc3ccccc3c12 | > 77.6 | 32.8 | 31 | > 53.6 | 26 | > 59.1 | > 89.9 | 35.8 | 51.5 | 49.5 | 46.4 |
| COc1cc2nc(Cl)nc(NS(=O)(=O)c3cc4ccccc4s3)c2cc1OC | > 100 | > 100 | 39.3 | 46.8 | 51.2 | 59.5 | > 100 | > 100 | 0.11 | 48.6 | 33.3 |
| COc1ccc(CCCCNCc2cccc(CNCCCCc3ccc(OC)cc3)c2)cc1 | 4.86 | 5.22 | 0.922 | 2.91 | 3.69 | 3.23 | 3.06 | 3.77 | 3.73 | 3.29 | 2.68 |
| Cc1c(C)c2c(c(N)c1C#N)C(=O)N(Cc1ccc(S(N)(=O)=O)cc1)C2=O | > 100 | > 100 | > 100 | > 44.6 | > 100 | > 100 | > 100 | > 56.6 | > 100 | 38.7 | > 100 |
| Cc1ccc(OCC2OC(n3cnc4c(Cl)nc(Nc5cc(Cl)cc(Cl)c5)nc43)CC2Oc2ccc(C)cc2)cc1 (stereo not given) | > 100 | > 100 | > 100 | > 100 | > 100 | > 100 | > 100 | > 100 | > 100 | > 100 | > 100 |
| Cc1c(C)c(S(=O)(=O)N(CCCCN)OCCCN)c(C)c2c1OC(C)(C)CC2 | 56.3 | > 100 | 20.8 | 80.6 | 42.8 | 40.4 | > 100 | 40.6 | 50.7 | 37.3 | 43 |
| CC(N)(CC(O)(C(F)(F)Cl)C(F)(F)Cl)C(=O)O (stereo not given) | > 10 | > 10 | > 10 | > 10 | > 10 | > 10 | > 10 | > 10 | > 10 | > 10 | > 10 |
| [B]C(=O)NC(CC(C)C)C(=O)NCC(=O)NC1c2ccsc2C(=O)C1O (stereo not given) (tested in a mixture with another compound) | > 100 | > 100 | > 100 | > 100 | > 100 | > 100 | > 100 | > 100 | > 100 | > 100 | > 100 |
